Measured values as given in patent US10101331B2, “Methods of evaluating patients using E-cadherin or vimentin” (AGIOS PHARMACEUTICALS, INC, priority 2012, dated 2018).
Entries after “also recorded” stand apart in the source; their conditions may differ.

Key:
Format in all cases: cell-based
[1] = tested on: A427 cells; test: 13C(5)-Gln labeling of glutamate and aspartate, LC/MS; conditions: 1 hr drug pre-treatment, 2 hr 13C(5)-Gln labeling
Procedure: (§1) A427 parent cells or lines stably expressing pLVX empty vector control (Con), wild-type GAC (GAC), or a BPTES-resistant GAC enzyme (GAC-BR) were treated with indicated concentrations of drugs in a 72 hr proliferation assay. […] Calculated p-values from student t-test, * (3×10^−8), **(10^−9), ^#(10^−7), ^##(2×10^−6).
Several groups have shown that GLS inhibition leads to a decrease in cellular tricarboxylic acid cycle (TCA) intermediates downstream of GLS activity (P. Gao et al. Nature 458, 762 (2009); T. Cheng et al. Proceedings of the National Academy of Sciences 108, 8674 (2011)). Measurement of glutamate (the product of the glutaminase reaction) and aspartate (which derives both carbon and nitrogen from glutamate) are particularly sensitive readouts of glutaminase activity (FIG. 13). ^13C labeled carbon in cells pre-treated with drug was tracked for 1 hr, followed by a 2 hr ^13C(5)-Gln labeling period, via LC/MS.

[2] = tested on: NCI-H1703; test: Lung cancer cell line panel screened for sensitivity to BPTES, 72 hr proliferation assay
[3] = tested on: A427; test: 72 hr proliferation assay using CellTiter-Glo in 96-well format; conditions: 72 hr treatment
From the text: (§2) FIGS. 8A-8C depict the GLS1 dependence in selected cancer cell lines. FIG. 8A depicts a western blot analysis of GLS1 and GLS2 protein levels in indicated cell lines. KGA and GAC alternative splice variants are indicated.
(§3) Proc of the National Academy of Sciences 109, 1092 (2012); McBryant Supra; DeLaBarre, Supra). […] This loop differs in primary sequence between GLS1 and GLS2, thereby explaining the differential response of the two isoforms.

[4] = tested on: SKBR3; test: as above; conditions: 72 hr treatment
From the text: as §2, §3

[5] = tested on: HepG2; test: as above; conditions: 72 hr treatment
From the text: as §2, §3

[6] = tested on: MDA-MB-231; test: as above; conditions: 72 hr treatment
From the text: as §2, §3

[7] = tested on: HUH7; test: as above; conditions: 72 hr treatment
From the text: as §2, §3

[8] = tested on: PC3; test: as above; conditions: 72 hr treatment
From the text: as §2, §3

[9] = tested on: HCT116; test: as above; conditions: 72 hr treatment
From the text: as §2, §3

[10] = tested on: CAKI-1; test: as above; conditions: 72 hr treatment
From the text: as §2, §3

[11] = tested on: NCI-H1651; test: Lung cancer cell line panel screened for sensitivity to BPTES, 72 hr proliferation assay
From the text: (§4) Of these, 44 of the cell lines have been classified as non-small cell lung cancer (NSCLC). […] Four of the top 25 transcriptional/cellular pathways were related to the epithelial-mesenchymal transition (EMT) (ranks 1, 15, 23, 25 of FIG. 2). […] Low E-cadherin/high vimentin are well-defined markers of cells that have a mesenchymal phenotype as characterized for example, in any one of the following references: (Yauch et al., (2005) Cin Cancer Res 11:24; Savagner et al., (2010) Ann Oncol. 21(suppl 7): vii89; Thiery et al., (2002) Nature Reviews Cancer June vol 2:442).

[12] = tested on: NCI-H838; test: as above
From the text: as §4

[13] = tested on: A427 cells; test: 72 hr proliferation assay in lines stably expressing empty vector, GAC or GAC-BR
Procedure: as §1
Levels of overexpression of the GAC WT and GAC-BR mutant were approximately 1.5-2.0 fold above endogenous GLS1 levels (FIG. 12).

O=C(Cc1ccccc1)Nc1nnc(CCSCCc2nnc(NC(=O)Cc3ccccc3)s2)s1 [BPTES]
13C label accumulation in glutamate and aspartate [1]: decreased label accumulation | Max Inh @ 10 uM (%) ([2]; NCI-H1703, 10 uM): 87% | Mu/max @10 uM ([2]; NCI-H1703, 10 uM): 0.30 | μ/μmax @10 uM ([2]; NCI-H1703, 10 uM): 0.30 | μ/μmax ([2]; NCI-H1703 cell line): 0.30 | response to BPTES treatment [3]: Maximum response | response to BPTES treatment [4]: minimum effect; also recorded: minimal response | sensitivity to BPTES treatment [5]: modest sensitivity | sensitivity to BPTES treatment [6]: modest sensitivity | response to the compound [7]: minimal response | response to the compound [8]: minimal response | response to the compound [9]: minimal response | sensitivity to BPTES treatment [10]: modest sensitivity | μ/μmax [11]: 1.00 | sensitivity to BPTES ([12]; NCI-H838): moderate level of sensitivity | Max Inh @ 10 uM (%) ([12]; NCI-H838, 10 uM): 37% | Mu/max @10 uM ([12]; NCI-H838, 10 uM): 0.66 | μ/μmax @10 uM ([12]; NCI-H838, 10 uM): 0.66 | μ/μmax ([12]; NCI-H838 cell line): 0.66 | sensitivity to BPTES ([13]; A427 cells expressing empty vector or GAC-WT): retained significant sensitivity | sensitivity to BPTES ([13]; A427 cells with stable overexpression of the GAC-BR mutant): rendered resistant
